Measurements taken from paper PMC4422685, “A New APEH Cluster with Antioxidant Functions in the Antarctic Hemoglobinless Icefish Chionodraco hamatus” (PLoS ONE, 2015).

Tests used:
APEH-1Dl [1] = molecular target: T1, APEH-1Dl (Dicentrarchus labrax, UniProt A0A8C4H3D3); assay: exopeptidase assay, fluorogenic AMC release; type: biochemical; conditions: 15 °C
T1 construct: native, purified from red blood cells; 80 kDa monomer, about 300 kDa homotetramer; N-terminus 1AAESQPATEE; deposited cDNA covers only 208 aa of the C-terminal part
Text: exopeptidase assay, fluorogenic AMC release on APEH-1Dl

APEH-1Dl [2] = molecular target: T1, APEH-1Dl; assay: exopeptidase (aminopeptidase) assay, pNA release; type: biochemical; conditions: 15 °C
Text: exopeptidase (aminopeptidase) assay, pNA release on APEH-1Dl

T1 sequence (A0A8C4H3D3 entry or part of it): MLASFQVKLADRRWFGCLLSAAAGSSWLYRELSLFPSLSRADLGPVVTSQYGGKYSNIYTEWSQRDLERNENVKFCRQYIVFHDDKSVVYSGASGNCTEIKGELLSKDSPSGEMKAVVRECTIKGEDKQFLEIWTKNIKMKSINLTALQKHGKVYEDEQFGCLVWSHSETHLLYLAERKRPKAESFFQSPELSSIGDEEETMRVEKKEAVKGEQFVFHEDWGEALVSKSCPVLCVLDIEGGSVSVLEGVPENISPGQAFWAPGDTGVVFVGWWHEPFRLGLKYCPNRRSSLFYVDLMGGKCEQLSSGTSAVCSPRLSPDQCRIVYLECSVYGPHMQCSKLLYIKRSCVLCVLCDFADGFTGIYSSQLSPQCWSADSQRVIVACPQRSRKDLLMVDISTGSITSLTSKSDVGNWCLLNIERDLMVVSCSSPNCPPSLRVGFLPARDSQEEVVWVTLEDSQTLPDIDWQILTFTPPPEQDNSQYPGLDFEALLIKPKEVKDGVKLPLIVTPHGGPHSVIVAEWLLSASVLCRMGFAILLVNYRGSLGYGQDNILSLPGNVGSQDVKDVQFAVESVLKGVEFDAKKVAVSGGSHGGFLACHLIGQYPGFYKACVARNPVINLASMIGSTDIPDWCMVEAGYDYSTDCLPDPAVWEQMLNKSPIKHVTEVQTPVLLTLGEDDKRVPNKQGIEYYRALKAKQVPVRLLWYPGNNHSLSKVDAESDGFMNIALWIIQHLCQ

| Km (APEH-1Dl [1]) [µM] | Km (APEH-1Dl [2]) [µM] | Structure (SMILES) |
| --- | --- | --- |
| 52 | – | CSCC[C@H](NC(C)=O)C(=O)Nc1ccc2c(C)cc(=O)oc2c1 [Ac-Met-AMC] |
| – | 28 | CC(=O)N[C@@H](C)C(=O)Nc1ccc([N+](=O)[O-])cc1 [Ac-Ala-pNA] |
